Laboratory results: patent US20220193103A1, “NANO-PUERARIN REGULATES TUMOR MICROENVIRONMENT AND FACILITATES CHEMO- AND IMMUNOTHERAPY IN MURINE TRIPLE NEGATIVE BREAST CANCER MODEL” (The University of North Carolina at Chapel Hill, priority 2019, published 2022)

Experiments:
[1] = test system: TGF-β activated NIH3T3 cells; experiment: ROS inhibition in TGF-β activated NIH3T3 cells (Fluorometric Hydrogen Peroxide Assay Kit); type: cell-based, mouse
Procedure: Based on literature and Chinese medicine pharmacology, 10 anti-fibrosis TCMs were selected to screen the ROS inhibition effects on TGF-β activated NIH3T3 cells. NIH3T3 cells were pre-stimulated with 10 ng/mL TGF-β for 24 h and 2×10^3 cells/well were seeded in a 96-well black plate. Then, the cells were treated with different TCMs. After these drugs were added, the cells were further cultured for 48 h. Then the concentration of ROS was determined with the Fluorometric Hydrogen Peroxide Assay Kit according to the manufacturer's instructions. The fluorescence intensity measured by using a fluorescence microplate reader (FLx800, Biotek Instrument Inc., Winooski, VT, USA) at excitation and emission wavelengths of 485 and 530 nm, respectively.

[2] = test system: NIH3T3 cells; type: cell-based, mouse; conditions: different concentrations, within 48 hours
Procedure: 1.4.4. Cytotoxicity of Puerarin. The addition of puerarin and nanoPue to NIH3T3 cells was the same as the ROS assay. After 48 h of incubation, the culture medium was discarded and the cell layers were washed twice with PBS. Then 100 μL culture medium and 10 μL MTT solution (5 mg/mL) were added and incubated for 4 h at 37° C. After the supernatant was removed, 150 μL DMSO was added and OD value was determined at 492 nm by using a multidetection microplate reader (Plate CHAMELEONTM V-Hidex). The cell viability rate of each concentration was calculated according to formula (1).
Cell viability %=(ODdosing group/ODcontrol group)×100% (1)

[3] = literature statement; cited from earlier work

In the case of Puerarin, the “ROS inhibition activity at different concentrations” value ([1]; TGF-β activated NIH3T3 cells, different concentrations) is reported as “concentration-dependent ROS downregulation pattern”, the “amount of ROS in TGF-β activated NIH3T3 cells” value ([1]; screen of ten natural compounds, 15 μg/mL, 48 h, compared with other natural compounds) is reported as “significantly reduced” and the “cytotoxicity in NIH3T3 cells (cell viability, MTT)” value [2] is reported as “no cytotoxicity”. For the same substance, the solubility [3] was “poorly soluble”.
